Data as given in article PMC10447463, “Data-mining unveils structure–property–activity correlation of viral infectivity enhancing self-assembling peptides” (Nature Communications, 2023).
Like-named read-outs stand apart in the source and are kept apart here.

Legend:
[1] = Turbidity, derived count rate of scattered light; assay type: physicochemical
How it was run: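 Samples: 1 mg/mL in PBS pH 7.4 (from DMSO), 1 d at RT, then diluted in 1 mM KCl immediately before measurement. Triplicates, two independent runs averaged.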

[2] = test system: HIV-1 infection of TZM-bl cells; test: HIV-1 infectivity enhancement assay, β-galactosidase luminescence; assay type: cell-based; conditions: for Log10 Inf. rel. to EF-C: log10 of HIV-1 infection of TZM-bl cells relative to EF-C, Fig S15 source data, asymmetric std dev errors
[3] = Zeta-potential measurement; assay type: physicochemical; conditions: for Zeta-pot. / mV: zeta potential of peptide, Fig S15 source data
How it was run: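 Zeta potentials of aggregated peptides come from electrophoretic mobility (Smoluchowski model) in 1 mM KCl after a 1 d RT incubation at 1 mg/mL in PBS, pH 7.4.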

[4] = category 1 or 0 from count rate, key not given
[5] = derived count rate of scattered light, mean, std deviation in next column
[6] = derived count rate of scattered light, mean, std deviation in separate column
[7] = Feb2021, 1.3 µM value relative to virus only (0 µM)
[8] = Feb2021, Log10 of infectivity relative to EF-C
[9] = Feb2021, n-fold enhancement relative to EF-C
[10] = Feb2021, n-fold infectivity relative to EF-C
[11] = Feb2021, unrounded values of the 1.3 µM column
[12] = Feb2021 run, infectivity n-fold relative to virus alone
[13] = Feb2021 run, log10 of infectivity relative to EF-C
[14] = Feb2021 run, n-fold infectivity relative to EF-C
[15] = infectivity class (low / medium / high) of each library peptide, main list in c1-c6, same classes repeated in sub-lists of sequences containing the hydrophobicity/charge patterns P+,H0,P+,H0,P0,H0,P0, P+,H0,P0,H0,P0,H0,P0, P+,H0,P0,H0
[16] = infectivity class (low / medium / high) of the peptide in the sequence-pattern analysis, Fig. S22-A4, class limits not given

Row | Substance | Zeta Count Rate Category ([1]; category 1/0, no key printed) | Zeta Count Rate Category [1, 4] | Zeta Count Rate / kcps [1, 5] [kcps] | Zeta Count Rate / kcps [1, 6] [kcps] | n-fold to virus (Feb2021) [2, 7] | Log10 of Rel to EFC (Feb2021) [2, 8] | Rel-to EFC (Feb-2021) [2, 9] | Rel-to EFC (Feb-2021) [2, 10] | Absolute Infectivity / RLU /s (Feb2021) [2, 11] [RLU /s] | n-fold to virus (Feb2021) [2, 12] | Log10 of Rel to EFC (Feb2021) [2, 13] | Rel-to EFC (Feb-2021) [2, 14] | infectivity [2, 15] | Log10 Inf. rel. to EF-C [2] | Zeta category ( +1 = if > 4 mV;-1 = if < -4 mV; 0 = -4mV to 4 mV) [3] | Zeta category ( +1 = if > 4 mV;-1 = if < -4 mV; 0 = -4mV to 4 mV) ([3]; category from zeta potential) | Zeta Pot. / mV ([3]; mean, Std Zeta in next column) [mV] | Zeta Pot. / mV ([3]; mean, Std in separate column) [mV] | Zeta-pot. / mV [3] [mV] | other results
1 | QCKFKFQFNM [CK8] | 1 | 1 | 3669.6 | 3669.6 | 21.52 | -0.2906 | 0.5121 | 0.5121 | 16353.33333 | 21.52 | -0.2906 | 0.5121 | medium | -0.2906 | 1 (+1 = if > 4 mV) | 1 (+1 = if > 4 mV) | 15.7 | 15.7 | 15.7 | 
2 | CKFKQFFNMWQ [CK13] |  | 1 | 8210 | 8210 |  | -0.2148 | 0.6098 | 0.6098 |  | 25.62 | -0.2148 | 0.6098 | medium | -0.2148 | 1 (+1 = if > 4 mV) | 1 (+1 = if > 4 mV) | 8.563 | 8.563 | 8.563 | Zeta Count Rate Category ([1]; category 1 / 0, no key given): 1; Zeta Count Rate / kcps ([1]; derived count rate of scattered light): 8210 kcps; Absolute Infectivity / RLU /s (Feb2021) ([2]; Feb2021, figures match the 1.3 µM column): 23486.66667 RLU /s; n-fold to virus (Feb2021) ([2]; Feb2021, infectivity relative to virus only): 25.62; Zeta Pot. / mV [3]: 8.563 mV
3 | QCKFKFQFNMWQ [CK7] | 1 | 1 | 1208 | 1208 | 25.99 | -0.2086 | 0.6186 | 0.6186 | 19753.33333 | 25.99 | -0.2086 | 0.6186 | medium | -0.2086 | 1 (+1 = if > 4 mV) | 1 (+1 = if > 4 mV) | 21.07 | 21.07 | 21.07 | 
4 | CKAKAQA [TM155] | 1 | 1 | 362.7 | 362.7 | 1.325 | -1.501 | 0.03153 | 0.03153 | 1740 | 1.325 | -1.501 | 0.03153 | low | -1.501 | -1 (-1 = if < -4 mV) | -1 (-1 = if < -4 mV) | -8.01 | -8.01 | -8.01 | infectivity [2, 16]: low
5 | MKIKIQINMWQ [TM52] | 1 | 1 | 1475 | 1475 | 17.6 | -0.378 | 0.4188 | 0.4188 | 12786.66667 | 17.6 | -0.378 | 0.4188 | medium | -0.378 | 1 (+1 = if > 4 mV) | 1 (+1 = if > 4 mV) | 10.8 | 10.8 | 10.8 | 
6 | CKFKFQFNMWQ [BL2] | 1 | 1 | 142.5 | 142.5 | 48.74 | 0.06446 | 1.16 | 1.16 | 26320 | 48.74 | 0.06446 | 1.16 | high | 0.06446 | 1 (+1 = if > 4 mV) | 1 (+1 = if > 4 mV) | 17.03 | 17.03 | 17.03 | infectivity [2, 16]: high
7 | KIKQIINM [JGA2] |  | 1 | 2481 |  |  | -0.3458 | 0.451 |  |  |  |  |  | medium | -0.3458 | 1 (+1 = if > 4 mV) | 1 (+1 = if > 4 mV) | 16.3 | 16.3 | 16.3 | Zeta Count Rate / kcps ([1]; derived count rate from zeta measurement, mean): 2481 kcps; Zeta Count Rate Category ([1]; key not given): 1; Rel-to EFC (Feb-2021) ([2]; infectivity enhancement relative to EF-C (=1), Feb2021 run): 0.451; n-fold to virus (Feb2021) ([2]; infectivity n-fold relative to virus only, Feb2021 run): 18.95; Log10 of Rel to EFC (Feb2021) ([2]; log10 of infectivity relative to EF-C, Feb2021 run): -0.3458
